Series [1] relates to AtT20/D16v-F2 murine pituitary tumor cells. Kind of series: in vitro cytotoxicity, MTT assay. The format is cell-based. The method, then: In vitro cytotoxicity: To evaluate the cytotoxicity of conjugates and metabolites, AtT20/D16v-F2 murine pituitary tumor cells obtained from American Type Culture Collection (ATCC, Bethesda, MD, USA) were used. Cell viability was determined using the MTT (3-(4,5-dimethyl thiaz ol-2-yl)-2,5-diphenyltetrazolium bromide) assay. Briefly, cells in DMEM supplemented with 10% FBS, 1% L-glutamine, and 1% penicillin/streptomycin were seeded in 96-well culture plates (3000 cells/well) and incubated overnight in a humidified, 37 °C, 5% CO2 atmosphere to allow for adherence. The following day, cells were treated with serial dilutions of each compound starting at 100 nM for free drugs and 1000 nM for each one of the conjugates and incubated as described for 2 h. 0.1% DMSO served as a control. After incubation, the cells were washed once, media replaced, and incubation continued for further 70 h. At the end of treatment, 5 µL of MTT solution (5 mg/mL in deionized H2O, Sigma #M5655) was added to each well and the cells were incubated for another 2 h. Finally, 100 µL of lysis buffer (10% SDS, 10 mM HCl) was added, and the cells were placed in the incubator overnight for the formazan crystal solubilization. Absorbance at 540 nm was measured using a FLUOstar Omega (BMG Labtech) microplate reader and the growth inhibition ratio was calculated. Blank controls detecting cell-free media absorbance were performed in parallel. Three experimental replicates were used. The half-maximal inhibitory concentration values (IC50) were obtained from viability curves while using GraphPad Prism 6. Cell viability was expressed as percentage relative to the respective control conditions.

The conditions of series [2]: cited from earlier work.
For series [3] the following is noted: mouse; cited from earlier work.
A short description of series [4]: plasma stability in human plasma. The note with it: 37 °C, read-out: Plasma Stability (t1/2 in h) Human (converted). The format is in vitro ADME. As to the method: (§1) Plasma stability: The sample preparation and the metabolic analysis of the conjugates was carried out similarly to the previously described method. Shortly, in a 96-well plate each conjugate and the control compound, procaine (3 mM, stock solution in DMSO) in three replicates were diluted with 250 μL of plasma to give a 3 µM concentration and then incubated at 37 °C. At each sample collecting time point, an aliquot of 30 µL was transferred into a 96-deep well plate and the reaction was stopped with 120 µL of acetonitrile containing 0.1% formic acid and 0.4 µg/mL of warfarin as the internal standard (IS). This mixture was centrifuged at 1100 ×g for 30 min at 4 °C and 50 µL of supernatant was transferred into a clean 96 deep-well plate and diluted with 50 µL of 0.1% formic acid in water. The samples were stored at -80 °C until analyses. Stability was determined based on LC-HRMS analysis of the disappearance of the compound as a function of incubation time, while using area ratio (analyte peak area vs internal standard peak area). The elimination constant k is calculated by plotting mean disappearance values on a semi-logarithmic scale and fitting with a best fit linear regression. The half-life (t1/2) expressed in hours is derived using the equation: t1/2 = ln2/(−k).

Series [5] has as its target T1, human SSTR2 (Homo sapiens, UniProt P30874).
T1 construct: membrane extract (recombinant CHO-K1-SST2 (NP_001041.1), 25 µL, 0.2 µg); expressed in transfected cells; host or cells: CHO-K1
Kind of series: radioligand binding competition assay with SSTR2 membrane extract. As to conditions: competition with 3-[125I] iodotyrosyl11 Somatostatin 14, CHO-K1-SST2 membranes. As to the method:
The dilution of test compound (50 µL, maximum final DMSO concentration 3%), radioligand 3-[125I] iodotyrosyl11 Somatostatin 14 (Perkin Elmer, NEX389, 25 µL, 0.4 nM), and membrane extract (recombinant CHO-K1-SST2 (NP_001041.1), 25 µL, 0.2 µg) were successively added to a 96-well plate and then incubated at 25 °C for 60 min. It was filtered over GF/B Unifilter plate (Perkin Elmer, 6005177, pre-soaked in 0.5% PEI for 2 h at room temperature) with a Filtermate Harvester (Perkin Elmer). After rinsing the filters six times with 0.5 mL of ice-cold washing buffer (25 mM HEPES pH 7.4, 5 mM MgCl2, 1 mM CaCl2), 50 µL of Microscint 20 (Packard) was added to the filters and the samples were incubated 15 min on an orbital shaker and then counted with a TopCount™ for 1 min/well. The binding affinity was determined in duplicates by plotting the dose-response data to a nonlinear regression with variable slope.

A short description of series [6]: plasma stability in murine plasma. The format is in vitro ADME. As to conditions: mouse, 37 °C, read-out: Plasma Stability (t1/2 in h) Murine (converted). As to the method: as §1
Series [7] relates to AtT20 xenografts. The series can be described thus: in vivo tumor targeting, whole body imaging. More on the design: species or system nude mice. As to conditions: 1 mg/kg i.v. The method, then: Tumor targeting studies: The fluorescence-labeled conjugate 10 (1 mg/kg in 2% DMSO in water) was intravenously injected in nude mice bearing AtT20 tumors. At each time point, whole body imaging was acquired using the Lago optical imaging system (Spectral Instruments Imaging), while mice were under isoflurane anesthesia (2.5%/20% O2).
Figure S1. Confocal microscopy images from conjugate 10 in SSTR2 positive cell line […]
Animal experiments were approved by the Committee for Animal Experiments of the […]
For in vivo tumor targeting and antitumor efficacy experiments, three million AtT20/D16v-F2 murine pituitary tumor cells in 100 µL PBS/Matrigel (v/v) were xenografted in the right flank of four-weeks-old female BALB/c nude mice (BALB/cAnNRj-Foxn1nu/nu, Janvier Labs). The experiments started around 15 days after implantation, when the animals started to show physical signs of the hormone releasing […]

Series [8] relates to A549 cells. Kind of series: live cell confocal microscopy, conjugate internalization in A549 cells. In kind it is cell-based, human. As to conditions: A549 cells with low levels of SSTR2, 1 µM.
Series [9] has as its system AtT20 cells. Kind of series: live cell confocal microscopy, conjugate internalization in AtT20 cells. In kind it is cell-based, murine.

Consider four molecules from article PMC6571972 (Pharmaceutics, 2019).

SMILES strings stand for the structures. Where two headings read alike, the source gives them in different places.

T1 sequence (P30874 whole entry): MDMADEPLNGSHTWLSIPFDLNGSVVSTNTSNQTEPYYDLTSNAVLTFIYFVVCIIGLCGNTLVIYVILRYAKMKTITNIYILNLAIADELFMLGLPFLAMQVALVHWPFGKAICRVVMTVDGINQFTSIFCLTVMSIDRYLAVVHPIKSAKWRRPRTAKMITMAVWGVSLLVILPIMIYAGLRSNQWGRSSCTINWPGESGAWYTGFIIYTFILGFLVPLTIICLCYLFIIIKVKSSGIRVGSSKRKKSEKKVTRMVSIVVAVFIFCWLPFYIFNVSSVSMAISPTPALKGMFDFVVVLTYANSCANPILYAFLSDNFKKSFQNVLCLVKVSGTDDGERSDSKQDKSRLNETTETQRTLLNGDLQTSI

Take `COc1ccc(C[C@H]2NC(=O)/C=C/C[C@@H]([C@H](C)[C@@H](OC(=O)CNC(=O)[C@@H]3CCCN3C(=O)CN)[C@@H](Cl)c3ccccc3)OC(=O)[C@H](CC(C)C)OC(=O)C(C)(C)CNC2=O)cc1Cl` [Gly-Pro-Cry-55gly]: the half-inhibitory concentration (IC50) (as a rule, the concentration that gives 50% inhibition) in series [1] (Mus musculus, AtT20, 2 h treatment, wash, further 70 h, MTT, read-out: Cytotoxicity in AtT20 (IC50 in nM)) was found to be 6.05 nM.

Take `COc1ccc(C[C@H]2NC(=O)/C=C/C[C@@H]([C@H](C)[C@@H](OC(=O)CN)[C@@H](Cl)c3ccccc3)OC(=O)[C@H](CC(C)C)OC(=O)C(C)(C)CNC2=O)cc1Cl` [compound 3, cryptophycin-55 glycinate]: the “Plasma Stability (t1/2 in h) Human” value in [2] was > 24 [48] h. The IC50 in series [1] (Mus musculus, AtT20, read-out: Cytotoxicity in AtT20 (IC50 in nM)) was 3.53 nM. The “Plasma Stability (t1/2 in h) Murine” value in [3] was > 24 [48] h.

As to `COc1ccc(C[C@H]2NC(=O)/C=C/C[C@@H]([C@H](C)[C@@H](OC(=O)CNC(=O)CNC(=O)[C@@H]3CCCN3C(=O)[C@H](CCCNC(N)=O)NC(=O)[C@@H](NC(=O)CCOCCOCCOCCOCCn3cc(CCC(=O)N[C@H](Cc4ccccc4)C(=O)N[C@H]4CSSC[C@@H](C(=O)N[C@H](CO)[C@@H](C)O)NC(=O)[C@H]([C@@H](C)O)NC(=O)[C@H](CCCCN)NC(=O)[C@@H](Cc5c[nH]c6ccccc56)NC(=O)[C@H](Cc5ccccc5)NC4=O)nn3)C(C)C)[C@@H](Cl)c3ccccc3)OC(=O)[C@H](CC(C)C)OC(=O)C(C)(C)CNC2=O)cc1Cl` [compound 7], the half-life at 3 µM was 23 h in [4] and 0.5 h in series [6]. Further, the IC50 in series [5] (read-out: Binding Affinity (IC50 in nM)) came to 0.6 nM; in series [1] (2 h treatment, wash, further 70 h, MTT, read-out: Cytotoxicity in AtT20 (IC50 in nM)), 51.2 nM.

As to `CC(C)[C@H](NC(=O)CCOCCOCCOCCOCCn1cc(CCC(=O)N[C@H](Cc2ccccc2)C(=O)N[C@H]2CSSC[C@@H](C(=O)N[C@H](CO)[C@@H](C)O)NC(=O)[C@H]([C@@H](C)O)NC(=O)[C@H](CCCCN)NC(=O)[C@@H](Cc3c[nH]c4ccccc34)NC(=O)[C@H](Cc3ccccc3)NC2=O)nn1)C(=O)N[C@@H](CCCNC(N)=O)C(=O)NCC(=O)N1CCC[C@H]1C(=O)NCCCCCCNC(=O)CCCCC[N+]1=C(/C=C/C=C/C=C2N(C)c3ccc4ccccc4c3C2(C)C)C(C)(C)c2c1ccc1ccccc21` [compound 10], in series [7] (AtT20 xenografts), the “accumulation in the tumor” value is “preferential accumulation”. The “duration of detection in tumor” value in series [7] (tumors around 50 mm^3) is reported as “up to seven”. Moreover, the “internalization of the conjugate” value in series [8] is given as “no internalization was observed”; in [9] (SSTR2 expressing AtT20 cells, 1 µM, after 10 min) it was “effective internalization”. In addition, the “Binding Affinity (IC50 in nM)” value in series [5] is “low nanomolar IC50”. Further, the “internalization of the conjugate with excess free ligand” value in [9] (AtT20 cells, 100-fold excess of free octreotide) is on record as “could be efficiently competed”.
